{
  "source": "patent US11434255B2",
  "about": "“Nucleoside and nucleotide analogues bearing a quaternary all-carbon stereogenic center at the 2′ position and methods of use as a cardioprotective agent” (LCB PHARMA INC., priority 2016, dated 2022)",
  "key": {"[1]": {"system": "AT1R mice", "test": "Echocardiography in AT1R transgenic (heart failure model) and wild-type mice", "type": "in vivo", "method": "(§1) Mice were handled in accordance with institutional guidelines for animal care. Experiments were approved by the institutional Animal Care Committees and the investigation conforms with the Guide for the Care and Use of Laboratory Animals published by the US National Institutes of Health (NIH Publication N. 85-23, revised 1985). Doxorubicin treatment was a single ip injection of 5 or 15 mg/kg as previously described by Aries et al.^6 ALZET micro-osmotic pumps (Model 1002, 0.25 μl/hr, 14 days) were filled with DMSO, Ang II (0.5 μgKg/day) LCB2122 (2.0 or 2.8 μg/Kg/day) diluted in normal saline and inserted subcutaneously in mice for two weeks. M-mode echocardiography was performed using Visual-Sonics VEVO 2100 system and 30-MHz linear array transducer, on lightly anesthetized mice using […], 80 ml/min of 100% oxygen, as described by Aries et al. and echocardiographic indices were calculated as described by Yang et al.^17 Heart failure was defined as EF<45%.\nTransgenic mice overexpressing the human angiotensin II type 1 receptor^7 (AT1R) under the control of the mouse α-myosin heavy chain were generated. These mice are a model of human HF. Cardiomyocyte specific overexpression induced in basal conditions overtime, morphologic changes that mimic those observed during the development of cardiac hypertrophy in humans. In order words, these mice develop age-dependent HF.\nAll AT1R mice had EF % less than 40%, similar to HF patients in human. […] LCB2122 treated AT1R mice (2.0 μg/kg/day for 4 weeks) had their cardiac functions improved as opposed to untreated mice. […] The data shown are the individual values of each mouse at weeks 0 and 4. All WT mice had normal EF % independent of LCB2122 treatment throughout the study. All AT1R mice were in HF prior to any treatment."}, "[2]": {"system": "HepG2 human cancer cell line", "test": "Cell Titer Glo growth inhibition, DOX +/- LCB2122", "type": "cell-based", "source_text": "Indeed, the IC50 of DOX in HepG2 human cancer cell line was identical in the absence or presence of LCB2122. FIG. 8 is a plot representing the percent growth inhibition as measured by Cell Titer Glo assays done on HepG2 cells treated with varying concentrations of DOX+/−LCB-2122 ([…])."}, "[3]": {"system": "primary cardiomyocytes", "test": "TUNEL assay, DOX-induced apoptosis in primary cardiomyocyte monolayers", "type": "cell-based", "method": "(§2) Primary cardiomyocyte monologues covered by serum free media (SF) were treated with DMSO (vehicle), Doxorubicin (DOX) (300 nM), Imatinib (Imat) (5 μM), and/or LCB2122 at varying concentrations (0.1, 0.5, 1.5 at 10 μM) diluted in SF for 3, 6, 18 or 24 hours. The TUNEL assay (Terminal Deoxynucleotidyltransferase mediated dUTP End Labeling) was utilized to detect apoptotic nuclei using an Apop Tag Red in Situ Apoptosis Detection Kit (Millipore, Temecula, Calif.). A Zeis fluorescent microscope was used for image acquisition. Cell counting was done using the Imager® Software."}, "[4]": {"system": "wild type mice, DOX-induced toxicity", "test": "In vivo echocardiography in DOX-treated mice", "method": "as §1"}, "[5]": {"system": "atrial natriuretic factor (ANF)", "test": "ANF ELISA on blood plasma of WT and AT1R mice", "type": "in vivo", "details": "2.0 μg/Kg/day, 4 weeks, FIG. 13b", "method": "FIG. 13b) quantification of an ANF ELISA assay done on blood plasma samples from vehicle and LCB2122 (2.0 μg/Kg/day, 4 weeks) treated WT and AT1R mice ventricles. Once again, the increase in ANF plasma levels was attenuated in the LCB2122 treated AT1R mice."}, "[6]": {"system": "cardiomyocytes", "test": "Sarcomeric alpha-actinin immunofluorescence on cardiomyocytes", "type": "cell-based", "details": "5 uM, six hours, FIG. 7", "method": "Immunofluorescence were performed on cardiomyocytes as previously described,^16 using a sarcomeric alpha-Actinin antibody (1/500).\nFIG. 7 is a micrograph showing α-actinin immunostaining (straight lines) of 2% PFA-fixed cardiomyocytes treated with a) vehicle (DMSO) or b) LCB2122 (5 uM) for six hours. […] White spots mark the nuclei."}, "[7]": {"system": "primary cardiomyocytes", "test": "TUNEL assay, Imatinib-induced apoptosis in primary cardiomyocytes", "type": "cell-based", "details": "Cardiomyocyte, 6 hours, FIG. 6, read-out: EC50, prevention of apoptosis induced by Imatinib", "method": "as §2"}, "[8]": {"system": "atrial natriuretic factor (ANF)", "test": "ANF transcript QPCR on ventricles of WT and AT1R mice", "type": "in vivo", "details": "2.0 μg/Kg/day, 4 weeks, FIG. 13a", "source_text": "The massive ANF upregulation seen in AT1R mice usually indicative of cardiac stress is attenuated in LCB2122 treated AT1R mice."}, "[9]": {"system": "primary cardiomyocytes", "test": "TUNEL assay, primary cardiomyocytes treated with 3 μM Doxorubicin for 6 hours (Table 1)", "type": "cell-based", "details": "Cardiomyocyte", "method": "as §2\nThe cardioprotective profile of LCB2122, LC2165, LCB2191 and LCB2177 were also investigated. As above, primary cardiomyocytes were treated with 3 μM of Doxorubicin for 6 hours alone or with the above compounds of the invention. The TUNEL assay was utilized to detect apoptotic nuclei. […] LCB2165, LCB2191 and LCB2177 were also active with IC50's of 5 μM."}, "[10]": {"system": "heart cardiomyocytes", "test": "TUNEL assay on heart sections of DOX-treated mice", "type": "in vivo", "details": "after 2 weeks, FIG. 11", "method": "as §1\nAfter these 2 weeks, heart cardiomyocytes were also tested by TUNEL assay (on heart sections)."}},
  "note": "Like-named read-outs stand apart in the source and are kept apart here.",
  "data": [
    {"smiles": "CCOP(=O)(OCC)OC[C@H]1O[C@@H](n2cnc3c(N)nc(Cl)nc32)[C@](C)(CO)[C@@H]1O", "note": "[LCB2122, ((2R,3S,4R,5R)-5-(6-amino-2-chloro-9H-purin-9-yl)-3-hydroxy-4-(hydroxymethyl)-4-methyltetrahydrofuran-2-yl)methyl diethyl phosphate]", "values": [
      {"measurement": "cardiac function (ejection fraction) in AT1R mice", "setting": "[1]; 2.0 μg/kg per day for 4 weeks, FIG. 12", "value": "significant improvement of the cardiac function"},
      {"measurement": "cardiac function of normal (WT) mice", "setting": "[1]; 2.0 μg/kg/day for 4 weeks", "value": "did not alter cardiac function of normal mice"},
      {"measurement": "share of treated AT1R mice with EF % equal and above 40%", "setting": "[1]; after four weeks of LCB2122", "value": 55, "unit": "%"},
      {"measurement": "effect on antiproliferative effect of DOX", "setting": "[2]; HepG2, DOX +/- LCB2122, FIG. 8", "value": "did not affect the antiproliferative effect of DOX"},
      {"measurement": "effect on HepG2 sensitivity to DOX", "setting": "[2]; up to 4 μM LCB2122", "value": "no effect on HepG2 sensitivity to DOX"},
      {"measurement": "EC50", "setting": "[3]; Cardiomyocyte, DOX 300 nM, TUNEL, FIG. 4, read-out: EC50, prevention of DOX-induced apoptotic cell death", "value": 0.5, "unit": "µM"},
      {"measurement": "prevention of DOX-induced apoptotic cell death", "setting": "[3]; DOX 300 nM, 6 hours, FIGS. 3 and 4", "value": "completely prevented DOX-induced apoptotic cell death"},
      {"measurement": "DOX-induced apoptosis over time", "setting": "[3]; DOX 300 nM, at 3, 6 or 24 hours", "value": "blocked"},
      {"measurement": "induction of apoptosis by the compound alone", "setting": "[3]; time course, any time points, FIG. 5", "value": "did not induce apoptosis"},
      {"measurement": "ejection fraction (EF, %) after DOX", "setting": "[4]; DOX ip, LCB2122 micropump for two weeks, FIG. 9", "value": "protected against DOX-induced toxicity"},
      {"measurement": "left ventricle wall thickness after DOX", "setting": "[4]; wild type mice, DOX, FIG. 10", "value": "protected against this DOX-induced wall thickness"},
      {"measurement": "increase in ANF plasma levels", "setting": "[5]", "value": "attenuated"},
      {"measurement": "cytoskeletal organization and cell size (α-actinin immunostaining)", "setting": "[6]", "value": "does not alter cytoskeletal organization or cell size"},
      {"measurement": "EC50", "setting": "[7]", "value": 5, "unit": "µM"},
      {"measurement": "ANF transcript upregulation in ventricles", "setting": "[8]", "value": "attenuated"},
      {"measurement": "IC50", "setting": "[9]; 6 h", "value": 1, "unit": "µM"},
      {"measurement": "apoptotic cardiomyocytes (TUNEL, heart sections)", "setting": "[10]", "value": "significant decrease of apoptotic cardiomyocytes"}
    ]},
    {"smiles": "CC(C)OP(=O)(OC[C@H]1O[C@@H](n2cnc3c(N)nc(Cl)nc32)[C@](C)(CO)[C@@H]1O)OC(C)C", "note": "[LCB2177, ((2R,3S,4R,5R)-5-(6-amino-2-chloro-9H-purin-9-yl)-3-hydroxy-4-(hydroxymethyl)-4-methyltetrahydrofuran-2-yl)methyl diisopropyl phosphate]", "values": [
      {"measurement": "IC50", "setting": "[9]; 3 μM Doxorubicin, 6 hours, TUNEL apoptotic nuclei, read-out: IC50", "value": 5, "unit": "µM"}
    ]},
    {"smiles": "C#CCOc1ccc(C(=O)c2ccc(C(=O)OC[C@]3(C)[C@H](O)[C@@H](COP(=O)(OCC)OCC)O[C@H]3n3cnc4c(N)nc(Cl)nc43)cc2)cc1", "note": "[LCB2191, ((2R,3R,4S,5R)-2-(6-amino-2-chloro-9H-purin-9-yl)-5-(((diethoxyphosphoryl)oxy)methyl)-4-hydroxy-3-methyltetrahydrofuran-3-yl)methyl 4-(4-(prop-2-yn-1-yloxy)benzoyl)benzoate]", "values": [
      {"measurement": "IC50", "setting": "[9]; 6 h", "value": 5, "unit": "µM"}
    ]},
    {"smiles": "CCOP(=O)(OCC)OC[C@H]1O[C@@H](n2cnc3c(N)nc(Cl)nc32)[C@](C)(COCc2ccccc2)[C@@H]1O", "note": "[LCB2165, ((2R,3S,4R,5R)-5-(6-amino-2-chloro-9H-purin-9-yl)-4-((benzyloxy)methyl)-3-hydroxy-4-methyltetrahydrofuran-2-yl)methyl diethyl phosphate]", "values": [
      {"measurement": "IC50", "setting": "[9]; 6 h", "value": 5, "unit": "µM"}
    ]},
    {"smiles": "COc1cccc2c1C(=O)c1c(O)c3c(c(O)c1C2=O)C[C@@](O)(C(=O)CO)C[C@@H]3O[C@H]1C[C@H](N)[C@H](O)[C@H](C)O1", "note": "[DOX, Doxorubicin, reference compound]", "values": [
      {"measurement": "ejection fraction (EF, %) after DOX alone", "setting": "[4]; mice, two weeks after DOX ip injection, FIG. 9", "value": "decreased significantly"},
      {"measurement": "ventricular wall thickness after DOX alone", "setting": "[4]; wild type mice, DOX (5 μg/kg) as printed", "value": "induced also a loss of ventricular wall thickness"}
    ]}
  ]
}
